Measured values published in PubChem BioAssay AID463074 (Broad Institute, 2010).
Activity calls are given as the source filed them.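 Rule for the calls: active = AC50 no more than tenfold above the top dose tested, or full inhibition at every dose with a flat fit (cut at about 19 µM in these data); inconclusive = flat curve fit with inhibition between 30% and 70%, or poor fit; inactive = AC50 more than tenfold above the top dose tested.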

Test system: HMLE_sh_eGFP viability, CellTiter-Glo luminescence, 72 h
Assay: viability loss of HMLE_sh_eGFP cells – cell-based, luminescence, counter-screen for HMLE_sh_ECad selective toxicity project, dose response (AID 463074);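 note: counterscreen control line to flag general toxicity for the HMLE_sh_ECad screen; potency for loss of viability as luminescence drops below DMSO wells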

SMILES | AC50
Cc1cccc2sc(NC(=O)C3c4ccccc4Oc4ccccc43)nc12 | 5.71 µM
CCCN(CCC)CCNC(=O)c1cc2c(-c3ccc(Cl)cc3)nn(C)c2s1 | 5.1 µM
Cc1nn(Cc2ccc(Cl)c(Cl)c2)c(C)c1NC(=O)c1cc(-c2ccc3c(c2)OCO3)on1 | 1.56 µM
COC(=O)Nc1ccc(S(=O)(=O)N2CCCc3ccccc32)cc1 | 2.21 µM
COc1cc(CNC(C)c2ccccc2)cc(Br)c1OCc1ccccc1 (centres undefined) | 6.75 µM
Nc1cc(-c2ccc(OC(F)(F)F)cc2)nn1-c1ccc(Cl)c(Cl)c1 | 5.83 µM
Cc1nn2c(COc3ccc(NC(=O)c4ccccc4Cl)cc3)nnc2c2ccccc12 | 3.08 µM
CCCCCCc1cc2cc(C(=O)Nc3ccccc3)c(=O)oc2cc1O | 2.01 µM
CCCCOc1ccc(C(=O)C(CN2CCOCC2)c2ccccc2)cc1 (centres undefined) | 6.76 µM
CCOC(=O)C(=Cc1ccc(-n2ccnc2)cc1)C(=O)OCC | 7.68 µM
CCc1ccc(-c2cc(C(=O)N3N=C(C(F)F)CC3(O)C(F)F)c3ccccc3n2)cc1 (centres undefined) | 6.4 µM
CC(C)(C)c1cc(Cl)ccc1OCCOCCN1CCCC1 | 6.54 µM
CC(/C=N/NC(=O)c1cc(-c2ccc(C)s2)[nH]n1)=C\c1ccccc1 | 4.35 µM
O=C(NNC(=O)c1cc(-c2ccc(Cl)c(Cl)c2)nc2ccccc12)Nc1ccccc1 | 6.4 µM
Cc1ccc(-c2nnc(N3CCC(C)CC3)c3ccccc23)cc1C | 4.3 µM
C=CCC[C@H](Cc1ccc(F)cc1)C(=O)O[C@H](CNC(=O)[C@@H](CC=C)CC(=O)N(CCO)Cc1ccccc1)c1ccccc1 | 7.4 µM
CCCC[C@@H](CN[C@H](C)CNC)NCC1CCC(C(C)(C)C)CC1 (some centres undefined) | 6.37 µM
Cc1cc(OCc2cc(C(=O)N3CCC(Oc4cccnc4)CC3)no2)cc(C)c1Cl | 8.31 µM
FC(F)Oc1ccc(-c2csc(NNC3=NCCCCC3)n2)cc1 | 3.28 µM
Cc1[nH]n(-c2ncc(-c3ccc(Cl)cc3)s2)c(=O)c1C(c1ccc(Cl)cc1)C(C#N)C#N (centres undefined) | 3.86 µM
CCCc1cc(=O)[nH]c(SCC(=O)Nc2sc(C(N)=O)c(C)c2C(=O)OCCOC)n1 | 4.25 µM
Cc1cc(OCC(=O)Nc2ccc(S(=O)(=O)NC3=NCCCCC3)cc2)c(C(C)C)cc1Cl | 10.2 µM
COc1ccc(-c2c(C#N)c(SCC(=O)c3cc4ccccc4oc3=O)nc(C)c2C(=O)Nc2ccccc2)cc1 | 1.5 µM
COc1ccc(Cn2c(SCc3ccccc3C)nc3cc(OC)c(OC)cc3c2=N)cc1 | 3.7 µM
CCOC(=O)C1=C(CSc2nc3ccccc3s2)NC(=O)NC1c1ccc(OC)cc1 (centres undefined) | 10.8 µM

SMILES | AC50
Cc1cccc(NC(=O)c2nc[nH]c2C(=O)NCCCNC(=O)c2[nH]cnc2C(=O)Nc2cccc(C)c2)c1 | 6.71 µM
CN1CCN(/N=C/c2ccc(N(c3ccccc3)c3ccccc3)cc2)CC1 | 6.89 µM
CCOc1cc(CNc2ccc(Br)cc2)cc(Br)c1OCC(=O)NC(C)(C)C | 6.32 µM
Cc1ccc2sc(N(CCCN(C)C)C(=O)c3ccc(S(=O)(=O)N4CCCCCC4)cc3)nc2c1C | 7.04 µM
Cc1c(-c2cccc(Cl)c2)nc2ccccc2c1C(=O)OC/C(O)=C(\C#N)c1nc2ccccc2[nH]1 | 3.12 µM
Cc1ccc(-c2nc(Nc3cccc(O)c3)c3ccccc3n2)cc1 | 7.23 µM
O=C(Cn1ncc(Cl)c(Cl)c1=O)N1CCN(S(=O)(=O)c2ccc3ccccc3c2)CC1 | 6.11 µM
CCCSc1nsc(NC(=O)C(c2ccccc2)c2ccccc2)n1 | 3.64 µM
Cc1cc(C)c2nc(N3CCCC(C(=O)N4CCN(c5ncccn5)CC4)C3)sc2c1 (centres undefined) | 11.2 µM
CCc1nc(N2CCN(Cc3ccc4c(c3)OCO4)CC2)c2oc3ccccc3c2n1 | 3.85 µM
CN(C)N1C(N)=C(C#N)C(c2cccc3ccccc23)C2=C1CC(c1ccccc1)CC2=O (centres undefined) | 1.02 µM
COc1ccccc1-c1cc(C(F)(F)F)nc(S(C)(=O)=O)n1 | 6.13 µM
CCN(CC)c1ccc(C(=O)OCc2cc(=O)oc3cc(O)ccc23)cc1 | 16.2 µM
Cc1nc(N2CCCCC2)c2c(C)c(C(=O)Nc3ccccc3C(F)(F)F)sc2n1 | 1.85 µM
O=C(/C=C/c1c[nH]c2ccccc12)c1cccc2ccccc12 | 5.3 µM
CNC(=O)NC(=O)C(C)OC(=O)c1oc2ccccc2c1CSc1ccc(Cl)cc1 (centres undefined) | 19.3 µM
CSc1ccc2c(c1)C(N1CCN(C)CC1)Cc1ccccc1S2 (centres undefined) | 15.1 µM
CCOC(=O)c1c(C)oc2c(F)c(F)c(F)c(F)c2c1=O | 2.02 µM
COc1ccc(/C=C/C(=O)c2ccc(O)cc2)cc1COc1ccc(F)cc1 | 4.37 µM
COc1cc(/C=C(\C#N)c2ccccn2)ccc1OCC(=O)Nc1ccc(Br)cc1 | 2.7 µM
CC1(C)CN(c2ccccc2)N(C(=O)c2ccc(C#N)cc2)C1=O | 4.31 µM
Cc1cc(C2(c3ccc(O)c(C)c3)C(=O)Nc3ccccc32)ccc1O | 7.1 µM
C[C@]12CC[C@H]3C(CCC4(O)CC(O)CC[C@]34C=O)C1=CC[C@H]2c1ccc(=O)oc1 (some centres undefined) | 3.6 µM
COc1cc(C(=O)N/N=C(\Cc2ncc[nH]2)c2ccccc2)cc(OC)c1OC | 6.39 µM
S=C(Nc1cccc(Cl)c1)N(CCCN1CCCC1)Cc1cccn1Cc1ccc(Cl)cc1 | 6.86 µM

SMILES | AC50
CNC(C)C(=O)NC(C(=O)N1CCCC1C(=O)NNc1ccccc1)C(C)C (centres undefined) | 6.41 µM
C[C@H](CO)N1C[C@H](C)[C@H](CN(C)Cc2ccc(-c3ccccc3)cc2)Oc2ccc(NS(=O)(=O)c3ccccc3)cc2CC1=O | 4.74 µM
CCCCCCCCCCCCN1[C@@H](CC(C)=O)c2cc(F)ccc2S1(=O)=O | 10 µM
Clc1ccc(-c2nnnn2-c2ccc(Cl)c(Cl)c2)cc1Cl | 15.2 µM
Fc1ccc(C(OCCN2CCN(CCCc3ccccc3)CC2)c2ccc(F)cc2)cc1 | 3.12 µM
Clc1ccccc1Cn1c(/C=C/c2ccco2)nc2ccccc21 | 2.19 µM
O=C(CN(c1cccc(C(F)(F)F)c1)S(=O)(=O)c1ccc(Cl)c([N+](=O)[O-])c1)NCc1ccccc1Cl | 2.6 µM
S=c1nc[nH]c2nc[nH]c12 | 1.52 µM
O=C(Nc1cccc(NC(=O)c2ccc([N+](=O)[O-])o2)c1)c1ccco1 | 7.23 µM
Cc1ccc(-c2cc(-c3ccccc3)nc(NN)n2)cc1 | 4.19 µM
CN1CCN(c2ccc(NC(=O)c3ccc(Cl)cc3)cn2)CC1 | > 19.5 µM (inactive)
CC1(C)CC[C@@]2(C(=O)O)C(C1)C1=CCC3[C@@]4(C)CC[C@H](O)C(C)(C)C4CC[C@@]3(C)[C@]1(C)C[C@H]2O (some centres undefined) | 7.84 µM
CC[C@H](CO)Nc1nc(Nc2cccc(Cl)c2)c2ncn(C(C)C)c2n1 | 6.74 µM
COc1ccc(NS(=O)(=O)c2cc(-c3cnc(C4CC4)o3)ccc2C)cc1 | 0.968 µM
O=C(CNC(=S)N(Cc1ccccc1)Cc1ccccc1F)NCCc1ccc(Cl)cc1 | 6.98 µM
COc1cc2sc(-c3ccccc3OC)c(-c3ccc(OCCN4CCCCC4)cc3)c2cc1OC | 4.24 µM
COc1cc(NC(=O)c2csc(N)n2)cc(C(=O)Nc2cccc(C(F)(F)F)c2)c1 | 5.65 µM
CNc1oc(-c2ccc(Cl)cc2)nc1P(=O)(c1ccccc1)c1ccccc1 | 9.43 µM
COc1ccc2nc(NC(=O)c3ccc([N+](=O)[O-])o3)sc2c1 | 3.77 µM
CCCCNc1c(-c2ccc(OC)c(Sc3ccc(OC)cc3)c2)nc2ccccn12 | 4.55 µM
O=C(Nc1nc2ccccc2s1)C1CCN(S(=O)(=O)c2cc([N+](=O)[O-])ccc2Cl)CC1 | 19 µM
C[C@]12CC[C@H](O)C[C@H]1CC[C@@H]1[C@@H]2CC[C@]2(C)[C@@H](C3=CC(=O)OC3)CC[C@]12O | 0.234 µM
CCn1c(C)nc2cc(C(=O)N/N=C/c3cccc(OC)c3O)ccc21 | 6.95 µM
O=C(Nc1ccc2c(c1)OCCO2)C(=O)c1c[nH]c2ccccc12 | 1.85 µM
